Data published in ChEMBL document CHEMBL5291721, “A preclinical secondary pharmacology resource illuminates target-adverse drug reaction associations of marketed drugs” (Nat Commun, 2023).

Key:
[1] = biological target: Sodium-dependent serotonin transporter (Homo sapiens, UniProt P31645)
[2] = biological target: Gamma-aminobutyric acid receptor subunit alpha-1/alpha-2/beta-2/gamma-2 (Homo sapiens, UniProt P14867+P18507+P47869+P47870); assay type: functional, cell-based
[3] = biological target: T1, 5-hydroxytryptamine receptor 2A (Homo sapiens, UniProt P28223); assay type: functional, cell-based
[4] = biological target: T1, 5-hydroxytryptamine receptor 2A; assay type: functional, cell-based; remark: listed apart in the source
[5] = biological target: T2, Alpha-1A adrenergic receptor (Homo sapiens, UniProt P35348)
T2 sequence (P35348 whole entry): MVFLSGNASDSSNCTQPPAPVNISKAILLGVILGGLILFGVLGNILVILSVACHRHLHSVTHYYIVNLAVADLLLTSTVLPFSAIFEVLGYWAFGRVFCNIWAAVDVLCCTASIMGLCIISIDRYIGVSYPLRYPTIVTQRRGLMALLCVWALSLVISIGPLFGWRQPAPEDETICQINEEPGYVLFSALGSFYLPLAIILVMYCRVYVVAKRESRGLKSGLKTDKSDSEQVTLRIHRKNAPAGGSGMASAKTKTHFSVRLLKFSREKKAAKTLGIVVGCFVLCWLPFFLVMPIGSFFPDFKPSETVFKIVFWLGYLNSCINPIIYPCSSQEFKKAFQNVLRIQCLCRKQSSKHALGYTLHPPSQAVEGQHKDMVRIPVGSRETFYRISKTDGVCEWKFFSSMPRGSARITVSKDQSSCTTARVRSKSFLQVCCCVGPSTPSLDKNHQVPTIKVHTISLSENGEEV

[6] = biological target: T3, Muscarinic acetylcholine receptor M2 (Homo sapiens, UniProt P08172)
T3 sequence (P08172 whole entry): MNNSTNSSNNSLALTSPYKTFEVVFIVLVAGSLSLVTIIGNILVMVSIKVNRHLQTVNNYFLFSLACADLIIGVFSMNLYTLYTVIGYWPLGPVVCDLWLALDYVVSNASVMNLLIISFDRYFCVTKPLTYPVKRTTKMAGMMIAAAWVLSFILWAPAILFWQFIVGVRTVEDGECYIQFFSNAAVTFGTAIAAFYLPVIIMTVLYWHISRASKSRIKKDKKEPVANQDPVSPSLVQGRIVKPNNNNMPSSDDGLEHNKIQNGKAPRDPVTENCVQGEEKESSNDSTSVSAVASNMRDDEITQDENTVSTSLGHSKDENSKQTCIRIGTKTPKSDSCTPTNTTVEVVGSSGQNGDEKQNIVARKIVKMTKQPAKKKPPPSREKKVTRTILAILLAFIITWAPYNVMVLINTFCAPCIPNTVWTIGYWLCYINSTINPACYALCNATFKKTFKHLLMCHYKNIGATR

[7] = biological target: Sodium channel protein type 5 subunit alpha (Homo sapiens, UniProt Q14524); assay type: functional, cell-based
[8] = biological target: T4, Corticotropin-releasing factor receptor 1 (Homo sapiens, UniProt P34998)
T4 sequence (P34998 whole entry): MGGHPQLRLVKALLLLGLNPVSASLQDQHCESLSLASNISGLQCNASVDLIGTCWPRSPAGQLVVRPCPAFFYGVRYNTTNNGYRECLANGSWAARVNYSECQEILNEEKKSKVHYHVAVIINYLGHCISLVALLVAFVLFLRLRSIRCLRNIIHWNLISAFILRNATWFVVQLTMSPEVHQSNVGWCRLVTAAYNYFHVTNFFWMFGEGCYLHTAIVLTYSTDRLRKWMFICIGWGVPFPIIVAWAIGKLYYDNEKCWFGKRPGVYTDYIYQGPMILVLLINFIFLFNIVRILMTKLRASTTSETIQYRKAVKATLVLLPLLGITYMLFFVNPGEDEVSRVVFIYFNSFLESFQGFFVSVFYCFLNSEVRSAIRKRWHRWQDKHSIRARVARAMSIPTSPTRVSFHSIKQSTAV

[9] = biological target: Voltage-dependent N-type calcium channel subunit alpha-1B (Rattus norvegicus, UniProt Q02294); assay type: functional
Sequence of Voltage-dependent N-type calcium channel subunit alpha-1B (Q02294 whole entry): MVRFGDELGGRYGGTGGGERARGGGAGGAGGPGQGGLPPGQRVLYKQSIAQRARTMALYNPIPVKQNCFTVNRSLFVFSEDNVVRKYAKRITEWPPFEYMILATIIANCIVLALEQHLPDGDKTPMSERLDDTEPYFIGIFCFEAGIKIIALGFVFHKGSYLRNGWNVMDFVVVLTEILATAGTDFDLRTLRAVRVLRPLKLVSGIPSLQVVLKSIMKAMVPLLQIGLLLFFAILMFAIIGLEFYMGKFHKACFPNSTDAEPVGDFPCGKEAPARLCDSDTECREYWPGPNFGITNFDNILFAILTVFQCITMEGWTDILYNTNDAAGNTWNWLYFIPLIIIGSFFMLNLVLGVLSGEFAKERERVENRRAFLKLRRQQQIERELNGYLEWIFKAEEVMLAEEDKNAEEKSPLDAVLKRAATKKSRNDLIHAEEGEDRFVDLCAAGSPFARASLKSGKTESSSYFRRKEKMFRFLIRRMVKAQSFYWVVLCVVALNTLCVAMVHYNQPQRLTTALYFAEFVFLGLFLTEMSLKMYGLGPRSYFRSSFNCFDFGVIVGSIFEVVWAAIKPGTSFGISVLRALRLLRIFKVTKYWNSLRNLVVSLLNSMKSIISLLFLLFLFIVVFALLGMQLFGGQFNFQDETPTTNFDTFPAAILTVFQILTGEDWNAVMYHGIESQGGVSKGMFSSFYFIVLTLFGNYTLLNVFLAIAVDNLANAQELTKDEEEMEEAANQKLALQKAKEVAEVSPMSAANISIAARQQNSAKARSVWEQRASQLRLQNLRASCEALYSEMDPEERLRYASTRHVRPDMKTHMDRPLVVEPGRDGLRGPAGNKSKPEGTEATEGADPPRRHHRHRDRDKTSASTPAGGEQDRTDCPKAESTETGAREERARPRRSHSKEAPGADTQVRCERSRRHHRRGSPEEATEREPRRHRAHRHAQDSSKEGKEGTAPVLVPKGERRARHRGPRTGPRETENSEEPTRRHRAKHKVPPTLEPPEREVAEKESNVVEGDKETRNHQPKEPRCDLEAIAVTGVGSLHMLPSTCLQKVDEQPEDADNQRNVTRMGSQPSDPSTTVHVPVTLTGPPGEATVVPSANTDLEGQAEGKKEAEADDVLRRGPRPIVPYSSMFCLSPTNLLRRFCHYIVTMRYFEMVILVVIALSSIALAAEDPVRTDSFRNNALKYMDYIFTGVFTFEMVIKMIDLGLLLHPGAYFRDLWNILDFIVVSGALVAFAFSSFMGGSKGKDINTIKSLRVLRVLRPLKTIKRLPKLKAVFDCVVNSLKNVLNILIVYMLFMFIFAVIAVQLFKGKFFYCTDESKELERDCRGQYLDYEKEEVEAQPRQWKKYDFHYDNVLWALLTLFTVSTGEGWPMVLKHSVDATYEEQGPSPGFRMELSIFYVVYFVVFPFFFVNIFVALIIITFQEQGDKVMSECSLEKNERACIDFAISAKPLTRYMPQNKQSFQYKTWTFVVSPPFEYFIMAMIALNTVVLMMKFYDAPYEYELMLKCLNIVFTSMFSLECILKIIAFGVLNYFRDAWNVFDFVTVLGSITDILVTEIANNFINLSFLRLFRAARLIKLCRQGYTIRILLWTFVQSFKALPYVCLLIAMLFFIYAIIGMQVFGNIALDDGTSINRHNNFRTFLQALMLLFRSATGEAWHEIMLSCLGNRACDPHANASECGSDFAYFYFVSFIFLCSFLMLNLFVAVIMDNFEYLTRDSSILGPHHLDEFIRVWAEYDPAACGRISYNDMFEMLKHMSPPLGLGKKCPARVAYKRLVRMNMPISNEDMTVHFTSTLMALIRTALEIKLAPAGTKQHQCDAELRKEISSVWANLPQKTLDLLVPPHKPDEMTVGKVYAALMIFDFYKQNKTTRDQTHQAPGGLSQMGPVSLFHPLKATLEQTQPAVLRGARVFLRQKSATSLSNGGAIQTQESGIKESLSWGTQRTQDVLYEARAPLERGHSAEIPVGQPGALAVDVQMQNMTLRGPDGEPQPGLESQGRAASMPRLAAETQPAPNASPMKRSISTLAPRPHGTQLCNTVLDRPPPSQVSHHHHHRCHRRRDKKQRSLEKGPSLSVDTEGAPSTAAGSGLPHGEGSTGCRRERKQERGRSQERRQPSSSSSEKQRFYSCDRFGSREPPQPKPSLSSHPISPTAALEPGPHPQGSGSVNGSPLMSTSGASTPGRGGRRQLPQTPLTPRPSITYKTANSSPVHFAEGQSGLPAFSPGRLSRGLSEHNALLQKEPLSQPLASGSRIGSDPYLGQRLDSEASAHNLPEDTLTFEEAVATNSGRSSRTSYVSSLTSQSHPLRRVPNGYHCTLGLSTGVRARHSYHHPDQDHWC

[10] = biological target: T5, Neuropeptide Y receptor type 2 (Homo sapiens, UniProt P49146)
T5 sequence (P49146 whole entry): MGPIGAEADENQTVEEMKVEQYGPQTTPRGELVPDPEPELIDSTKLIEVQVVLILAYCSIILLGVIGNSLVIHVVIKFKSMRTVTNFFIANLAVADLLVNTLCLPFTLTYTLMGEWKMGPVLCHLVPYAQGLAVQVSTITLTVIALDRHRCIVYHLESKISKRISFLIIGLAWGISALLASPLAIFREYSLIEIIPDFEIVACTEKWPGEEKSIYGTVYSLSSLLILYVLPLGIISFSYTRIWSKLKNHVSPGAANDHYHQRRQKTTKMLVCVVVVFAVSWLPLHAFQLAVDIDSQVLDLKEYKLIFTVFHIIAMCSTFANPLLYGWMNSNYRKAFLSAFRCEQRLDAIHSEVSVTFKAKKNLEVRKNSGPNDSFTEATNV

[11] = biological target: T6, Gastric inhibitory polypeptide receptor (Homo sapiens, UniProt P48546)
T6 sequence (P48546 whole entry): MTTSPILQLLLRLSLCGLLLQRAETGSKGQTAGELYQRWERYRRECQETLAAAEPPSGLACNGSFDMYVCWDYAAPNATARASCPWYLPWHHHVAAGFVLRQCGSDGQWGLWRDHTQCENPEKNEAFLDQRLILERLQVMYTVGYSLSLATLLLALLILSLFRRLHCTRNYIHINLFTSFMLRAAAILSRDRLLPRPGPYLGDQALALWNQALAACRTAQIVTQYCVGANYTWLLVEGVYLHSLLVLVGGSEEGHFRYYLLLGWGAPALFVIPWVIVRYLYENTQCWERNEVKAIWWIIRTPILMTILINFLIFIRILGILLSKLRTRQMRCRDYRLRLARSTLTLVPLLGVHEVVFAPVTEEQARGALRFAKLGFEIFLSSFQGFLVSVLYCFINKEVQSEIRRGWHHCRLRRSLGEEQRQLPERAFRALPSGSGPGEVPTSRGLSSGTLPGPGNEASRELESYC
Note: assay procedure not described here.

Sequence of Sodium-dependent serotonin transporter (P31645 whole entry): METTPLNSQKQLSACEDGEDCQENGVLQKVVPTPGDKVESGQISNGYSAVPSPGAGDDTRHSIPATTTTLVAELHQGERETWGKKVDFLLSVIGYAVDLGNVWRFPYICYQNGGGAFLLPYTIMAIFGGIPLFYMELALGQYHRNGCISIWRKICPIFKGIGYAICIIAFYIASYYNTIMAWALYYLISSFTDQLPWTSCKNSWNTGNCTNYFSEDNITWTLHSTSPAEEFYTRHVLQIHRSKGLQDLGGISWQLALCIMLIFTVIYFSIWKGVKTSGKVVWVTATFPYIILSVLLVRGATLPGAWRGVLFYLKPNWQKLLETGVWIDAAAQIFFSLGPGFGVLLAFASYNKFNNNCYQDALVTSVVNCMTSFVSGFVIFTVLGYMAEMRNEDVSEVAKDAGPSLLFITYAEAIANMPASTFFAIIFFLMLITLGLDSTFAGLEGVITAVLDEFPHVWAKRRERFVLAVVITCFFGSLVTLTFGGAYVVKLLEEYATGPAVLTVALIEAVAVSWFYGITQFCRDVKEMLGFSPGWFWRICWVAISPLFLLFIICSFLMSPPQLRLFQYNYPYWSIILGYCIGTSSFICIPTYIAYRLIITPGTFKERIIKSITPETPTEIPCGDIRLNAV
Sequence of Gamma-aminobutyric acid receptor subunit alpha-1/alpha-2/beta-2/gamma-2 (P14867 whole entry): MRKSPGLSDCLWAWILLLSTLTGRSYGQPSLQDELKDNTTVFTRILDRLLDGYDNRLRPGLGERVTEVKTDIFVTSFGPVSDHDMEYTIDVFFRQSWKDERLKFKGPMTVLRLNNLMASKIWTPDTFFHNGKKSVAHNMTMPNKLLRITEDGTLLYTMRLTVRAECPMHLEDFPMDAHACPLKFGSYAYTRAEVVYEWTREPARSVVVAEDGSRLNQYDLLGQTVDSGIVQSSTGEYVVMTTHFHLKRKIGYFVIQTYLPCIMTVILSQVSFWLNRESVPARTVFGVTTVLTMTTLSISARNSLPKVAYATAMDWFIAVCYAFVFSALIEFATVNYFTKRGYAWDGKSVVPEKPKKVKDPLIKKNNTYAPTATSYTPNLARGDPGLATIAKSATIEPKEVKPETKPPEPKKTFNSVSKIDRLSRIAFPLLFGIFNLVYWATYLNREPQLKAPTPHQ
Sequence of Gamma-aminobutyric acid receptor subunit alpha-1/alpha-2/beta-2/gamma-2 (P47870 whole entry): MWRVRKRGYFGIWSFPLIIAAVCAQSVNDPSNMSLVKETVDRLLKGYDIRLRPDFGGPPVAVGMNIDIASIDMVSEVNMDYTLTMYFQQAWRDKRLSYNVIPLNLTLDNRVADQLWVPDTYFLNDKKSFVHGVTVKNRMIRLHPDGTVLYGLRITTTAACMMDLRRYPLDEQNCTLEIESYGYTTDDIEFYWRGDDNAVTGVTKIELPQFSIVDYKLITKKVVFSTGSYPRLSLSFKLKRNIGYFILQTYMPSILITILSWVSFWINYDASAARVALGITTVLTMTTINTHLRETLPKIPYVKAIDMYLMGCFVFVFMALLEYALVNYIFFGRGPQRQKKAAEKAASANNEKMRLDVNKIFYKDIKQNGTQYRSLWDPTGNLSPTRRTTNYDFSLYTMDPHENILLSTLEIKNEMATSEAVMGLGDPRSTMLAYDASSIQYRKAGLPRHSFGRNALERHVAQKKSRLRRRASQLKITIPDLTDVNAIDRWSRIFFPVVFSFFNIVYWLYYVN
Sequence of Gamma-aminobutyric acid receptor subunit alpha-1/alpha-2/beta-2/gamma-2 (P18507 whole entry): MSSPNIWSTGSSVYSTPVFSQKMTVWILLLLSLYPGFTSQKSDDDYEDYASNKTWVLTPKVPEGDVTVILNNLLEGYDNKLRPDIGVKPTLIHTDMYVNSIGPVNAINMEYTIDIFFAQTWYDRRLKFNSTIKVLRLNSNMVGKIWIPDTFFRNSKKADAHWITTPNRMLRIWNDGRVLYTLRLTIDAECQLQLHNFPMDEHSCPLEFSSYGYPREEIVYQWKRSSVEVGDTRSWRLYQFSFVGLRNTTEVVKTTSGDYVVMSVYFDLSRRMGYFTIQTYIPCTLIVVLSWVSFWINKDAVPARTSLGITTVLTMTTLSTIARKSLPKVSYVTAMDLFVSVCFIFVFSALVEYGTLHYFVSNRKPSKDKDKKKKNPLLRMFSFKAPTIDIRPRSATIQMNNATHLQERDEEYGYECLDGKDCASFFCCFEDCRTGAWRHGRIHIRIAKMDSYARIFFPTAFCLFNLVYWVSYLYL
Sequence of Gamma-aminobutyric acid receptor subunit alpha-1/alpha-2/beta-2/gamma-2 (P47869 whole entry): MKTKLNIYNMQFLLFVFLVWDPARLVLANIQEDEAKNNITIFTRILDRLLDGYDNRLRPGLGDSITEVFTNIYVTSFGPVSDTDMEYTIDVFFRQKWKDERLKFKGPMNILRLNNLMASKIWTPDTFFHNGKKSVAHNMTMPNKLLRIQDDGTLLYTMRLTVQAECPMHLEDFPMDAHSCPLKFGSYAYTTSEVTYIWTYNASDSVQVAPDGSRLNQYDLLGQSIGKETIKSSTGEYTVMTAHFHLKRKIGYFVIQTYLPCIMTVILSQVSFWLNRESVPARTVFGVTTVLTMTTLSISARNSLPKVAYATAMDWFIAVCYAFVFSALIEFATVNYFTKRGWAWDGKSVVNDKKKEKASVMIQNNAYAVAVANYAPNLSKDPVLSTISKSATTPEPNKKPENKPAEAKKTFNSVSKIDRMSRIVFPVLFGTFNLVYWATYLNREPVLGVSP

SMILES: CC(=N)N1CC[C@H](SC2=C(C(=O)O)N3C(=O)[C@H]([C@@H](C)O)[C@H]3C2)C1
- AC50 [1]: 37 µM
- AC50 [2]: > 2400 µM
- AC50 [3]: > 300 µM
- AC50 [4]: > 300 µM

SMILES: O=C1CN2Cc3c(ccc(Cl)c3Cl)N=C2N1 [ANAGRELIDE]
- AC50 [1]: > 30 µM
- AC50 [3]: > 30 µM
- AC50 [5]: > 10 µM
- AC50 [4]: > 30 µM

SMILES: CCc1oc2ccccc2c1C(=O)c1cc(Br)c(O)c(Br)c1 [BENZBROMARONE]
- AC50 [5]: > 10 µM
- AC50 [6]: 0.0373 µM

SMILES: Cc1ccc([C@@H]2O[C@H](CO)[C@@H](O)[C@H](O)[C@H]2O)cc1Cc1ccc(-c2ccc(F)cc2)s1 [CANAGLIFLOZIN ANHYDROUS]
- AC50 [7]: > 50 µM

SMILES: CO/N=C(\C(=O)N[C@@H]1C(=O)N2C(C(=O)O)=C(COC(N)=O)CS[C@H]12)c1ccco1 [CEFUROXIME]
- AC50 [1]: > 30 µM
- AC50 [2]: > 30 µM
- AC50 [3]: > 30 µM
- AC50 [4]: > 30 µM

SMILES: [H]/N=C(\N/C(=N/[H])NCCCCCCNC(=N)NC(=N)Nc1ccc(Cl)cc1)Nc1ccc(Cl)cc1 [CHLORHEXIDINE]
- AC50 [1]: 1 µM
- AC50 [3]: 1.83 µM
- AC50 [5]: 0.607 µM
- AC50 [4]: > 10 µM

SMILES: Clc1cccc(Cl)c1N=C1NCCN1 [CLONIDINE]
- AC50 [8]: > 30 µM
- AC50 [9]: > 10 µM
- AC50 [10]: > 30 µM
- AC50 [11]: > 30 µM
- AC50 [6]: > 10 µM

SMILES: COC(=O)[C@H](c1ccccc1Cl)N1CCc2sccc2C1 [CLOPIDOGREL]
- AC50 [2]: > 30 µM
- AC50 [8]: > 30 µM
- AC50 [9]: > 10 µM
- AC50 [10]: > 30 µM
- AC50 [11]: > 30 µM
- AC50 [5]: > 10 µM
- AC50 [6]: > 10 µM

SMILES: CN1C[C@H](C(=O)N[C@]2(C)O[C@@]3(O)[C@@H]4CCCN4C(=O)[C@H](Cc4ccccc4)N3C2=O)C[C@@H]2c3cccc4[nH]cc(c34)C[C@H]21 [DIHYDROERGOTAMINE]
- AC50 [8]: > 30 µM
- AC50 [9]: > 10 µM
- AC50 [10]: > 30 µM
- AC50 [11]: > 30 µM
- AC50 [5]: 0.0376 µM
- AC50 [6]: > 10 µM

SMILES: CNCC[C@H](Oc1cccc2ccccc12)c1cccs1 [DULOXETINE]
- AC50 [7]: 5.3 µM

SMILES: C#Cc1cccc(Nc2ncnc3cc(OCCOC)c(OCCOC)cc23)c1 [ERLOTINIB]
- AC50 [2]: > 30 µM

SMILES: CCC(=O)O[C@@H](O[P@](=O)(CCCCc1ccccc1)CC(=O)N1C[C@H](C2CCCCC2)C[C@H]1C(=O)O)C(C)C [FOSINOPRIL]
- AC50 [2]: > 30 µM
- AC50 [3]: > 30 µM
- AC50 [4]: > 30 µM

SMILES: Cc1cnc(NC(=O)C2=C(O)c3ccccc3S(=O)(=O)N2C)s1 [MELOXICAM]
- AC50 [8]: > 30 µM
- AC50 [9]: > 10 µM
- AC50 [10]: > 30 µM
- AC50 [11]: > 30 µM
- AC50 [5]: > 10 µM
- AC50 [6]: > 10 µM

SMILES: CC(=O)/N=c1/sc(S(N)(=O)=O)nn1C [METHAZOLAMIDE]
- AC50 [1]: > 10 µM
- AC50 [3]: > 10 µM
- AC50 [5]: > 10 µM
- AC50 [4]: > 10 µM

SMILES: CC[C@@H](CO)NC(=O)[C@@H]1C=C2c3cccc4[nH]cc(c34)C[C@H]2N(C)C1 [METHYLERGONOVINE]
- AC50 [5]: 12 µM
